Assay results from patent US8791132B2, “Compounds and methods for treatment of hypertension” (Medivation Technologies, Inc., priority 2011, dated 2014).
Where two headings read alike, the source gives them in different places. Blank lines part the entries; values can stand above or below the molecule they belong to.

Legend:
[1] = molecular target: T1, human recombinant adrenergic α2B receptor (Homo sapiens, UniProt P18089); assay: Radioligand binding, adrenergic α2B ([3H]Rauwolscine); settings: for Ki: read-out: Ki α2B; for inhibition at 0.03 µM: read-out: Percentage inhibition of ligand binding, Adrenergic α2B (0.03 μM), compound at 0.03 μM; for Percentage inhibition of ligand binding, Adrenergic α2B (0.03 μM): compound at 0.03 μM; for Percentage inhibition of ligand binding, Adrenergic α2B: 0.03 μM compound; for Percentage inhibition of ligand binding, Adrenergic α2B (0.03 μM) / Percentage inhibition of ligand binding, Adrenergic α2B: 0.03 µM
T1 construct: expressed in transfected cells; host or cells: CHO-K1
T1 sequence (P18089 1-450): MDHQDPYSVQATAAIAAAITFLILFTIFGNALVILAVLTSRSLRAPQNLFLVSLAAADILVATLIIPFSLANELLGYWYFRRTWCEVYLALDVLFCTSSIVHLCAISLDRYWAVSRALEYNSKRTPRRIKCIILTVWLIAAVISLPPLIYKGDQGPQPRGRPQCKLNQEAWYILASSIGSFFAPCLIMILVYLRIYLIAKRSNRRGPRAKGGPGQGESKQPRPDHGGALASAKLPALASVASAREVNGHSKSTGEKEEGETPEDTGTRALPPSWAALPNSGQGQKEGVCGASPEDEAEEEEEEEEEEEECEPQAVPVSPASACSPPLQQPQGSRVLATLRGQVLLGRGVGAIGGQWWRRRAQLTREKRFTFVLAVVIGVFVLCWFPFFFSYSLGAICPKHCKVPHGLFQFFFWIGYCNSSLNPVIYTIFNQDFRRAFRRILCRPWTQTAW
Experimental: To evaluate in radioligand binding assays the activity of compounds of the invention, human recombinant adrenergic α2B receptor expressed in Chinese hamster ovary (CHO) K1 cells (Uhlen, S. et al, Eur. J. Pharmacol. 343(1):93, 1998) in a modified Tris-HCl buffer (50 mM Tris-HCl, pH 7.4, 12.5 mM MgCl2, 1 mM EDTA, 0.2% BSA) was used. Compounds of the invention were incubated with 2.5 nM [3H]Rauwolscine for 60 min at 25° C. Non-specific binding was estimated in the presence of 10 μM Prazosin. Receptor proteins were filtered and washed, the filters were then counted to determine [3H]Rauwolscine specifically bound. […] Compounds of the invention were tested in this biochemical assay and percent inhibition of specific binding was determined. Biochemical assay results are presented as the percent inhibition of specific binding in Table B1.

[2] = molecular target: T2, human recombinant adrenergic α2A receptor (Homo sapiens, UniProt P08913); assay: Radioligand binding, adrenergic α2A ([3H]MK-912); settings: for Percentage inhibition of ligand binding, Adrenergic α2A (0.1 μM): compound at 0.1 μM; for Percentage inhibition of ligand binding, Adrenergic α2A (0.1 μM) / Percentage inhibition of ligand binding, Adrenergic α2A: 0.1 µM
T2 construct: expressed in transfected cells; host or cells: insect Sf9 cells
T2 sequence (P08913 1-465): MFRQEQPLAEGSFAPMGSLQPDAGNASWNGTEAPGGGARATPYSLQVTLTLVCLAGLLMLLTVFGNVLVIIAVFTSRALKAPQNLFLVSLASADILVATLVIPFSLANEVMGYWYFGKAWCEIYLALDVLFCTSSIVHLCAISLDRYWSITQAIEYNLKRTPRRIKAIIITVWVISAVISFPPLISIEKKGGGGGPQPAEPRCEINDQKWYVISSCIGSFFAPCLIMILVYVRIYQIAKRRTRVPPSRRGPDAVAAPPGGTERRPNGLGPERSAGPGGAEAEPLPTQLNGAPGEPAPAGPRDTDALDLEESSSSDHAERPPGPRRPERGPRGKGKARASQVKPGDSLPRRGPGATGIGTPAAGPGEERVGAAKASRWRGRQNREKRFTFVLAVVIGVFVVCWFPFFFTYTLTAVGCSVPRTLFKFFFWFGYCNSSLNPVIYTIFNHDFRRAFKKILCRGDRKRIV
Experimental: To evaluate in radioligand binding assays the activity of compounds of the invention, human recombinant adrenergic α2A receptor expressed in insect Sf9 cells (Uhlen, S. et al, J. Pharmacol. Exp. Ther. 271:1558, 1994) in a modified Tris-HCl buffer (50 mM Tris-HCl, pH 7.4, 12.5 mM MgCl2, 2 mM EDTA) was used. Compounds of invention were incubated with 1 nM [^3H]MK-912 for 60 min at 25° C. MK912 is (2S-trans)-1,3,4,5′,6,6′,7,12b-octahydro-1′,3′-dimethyl-spiro[2H-benzofuro[2,3-a]quinolizine-2,4′(1′H)-pyrimidin]-2′(3′H)-one hydrochloride. Non-specific binding was estimated in the presence of 10 μM WB-4101 (2-(2,6-Dimethoxyphenoxyethyl)aminomethyl-1,4-benzodioxane hydrochloride). Receptor proteins were filtered and washed, the filters were then counted to determine [^3H]MK-912 specifically bound. […] Compounds of the invention were tested in this biochemical assay and percent inhibition of specific binding was determined. Biochemical assay results are presented as the percent inhibition of specific binding in Table B1.

[3] = [3H]Rauwolscine, repeat datapoints each shown
[4] = read-out: Percentage inhibition of ligand binding, Adrenergic α2A (0.1 μM), compound at 0.1 μM, [3H]MK-912, repeat datapoints each shown
[5] = read-out: Percentage inhibition of ligand binding, Adrenergic α2B (0.1 μM), compound at 0.1 μM, [3H]Rauwolscine, repeat datapoints each shown
[6] = [3H]MK-912, repeat datapoints each shown
[7] = 0.1 μM compound, read-out: Percentage inhibition of ligand binding, Adrenergic α2B

Structure (SMILES): Cc1ccc2c(c1)c1c(n2CC(N=[N+]=[N-])c2ccncc2)CCN(C)C1 (racemic) [V-1, 5-(2-azido-2-(pyridin-4-yl)ethyl)-2,3,4,5-tetrahydro-2,8-dimethyl-1H-pyrido[4,3-b]indole]
Ki [1]: 0.51 nM
inhibition at 0.03 µM [1, 3]: 102%
inhibition at 0.1 µM [2, 4]: 35%

Structure (SMILES): Cc1cnc2c(c1)c1c(n2CC(O)c2ccc(F)cc2)CCN(C)C1 (single isomer, unassigned) [136b]
Percentage inhibition of ligand binding, Adrenergic α2B (0.03 μM) [1, 3]: 69%
Percentage inhibition of ligand binding, Adrenergic α2A (0.1 μM) [2, 6]: 21%

Structure (SMILES): Cc1ccc2c(c1)c1c(n2CC(O)c2ccc(C#N)cc2)CCN(C)C1 (single isomer, unassigned) [142b]
Percentage inhibition of ligand binding, Adrenergic α2A (0.1 μM) [2, 6]: 63%

Structure (SMILES): Cc1cnc2c(c1)c1c(n2CC(C)(O)c2ccc(C)nc2)CCN2CCCC12 (single isomer, unassigned) [148d]
Percentage inhibition of ligand binding, Adrenergic α2B (0.03 μM) [1, 3]: 11%
Percentage inhibition of ligand binding, Adrenergic α2A (0.1 μM) [2, 6]: −11%

Structure (SMILES): Cc1ccc2c(c1)c1c(n2CC(c2ccncc2)N2CCCC2)CCN(C)C1 (single isomer, unassigned) [152a]
inhibition at 0.1 µM [2, 4]: 17%

Structure (SMILES): Cc1ccc2c(c1)c1c(n2CC(N)c2ccncc2)CC2CCC1N2C (single isomer, unassigned) [155a]
Percentage inhibition of ligand binding, Adrenergic α2A (0.1 μM) [2, 6]: −1%

Structure (SMILES): CN1CCc2c(n(CC(O)c3ccc(F)c(F)c3)c3ccc(Cl)cc23)CC1 (single isomer, unassigned) [339b]
Percentage inhibition of ligand binding, Adrenergic α2A ([2]; 0.1 μM compound): 64%

Structure (SMILES): OCCN1CCc2c(c3cc(Cl)ccc3n2CC(O)c2cccnc2)C1 (single isomer, unassigned) [II-94a]
Percentage inhibition of ligand binding, Adrenergic α2B [1]: 8%
Percentage inhibition of ligand binding, Adrenergic α2A ([2]; 0.1 μM compound): 0%

Structure (SMILES): CC(O)(Cn1c2c(c3cc(Cl)ccc31)CN(C1CCC1)CC2)c1cccnc1 (single isomer, unassigned) [II-118a]
Percentage inhibition of ligand binding, Adrenergic α2B (0.03 μM) [1, 3]: 27%
inhibition at 0.1 µM [2, 4]: 3%

Structure (SMILES): Cc1ccc2c(c1)c1c(n2CC(C)(O)c2cccnc2)CCN(C)C1C (single isomer, unassigned) [II-152a]
Percentage inhibition of ligand binding, Adrenergic α2B (0.03 μM) [1, 3]: 93%

Structure (SMILES): OCCN1CCc2c(c3cc(Cl)ccc3n2CC(O)c2ccncc2)C1 (stereo not drawn) [II-93b]
Percentage inhibition of ligand binding, Adrenergic α2A ([2]; 0.1 μM compound): 4%

Structure (SMILES): FC(F)(F)c1ccc(CCn2c3c(c4cccnc42)CN2CCCC2C3)cn1 (stereo not drawn) [II-236]
inhibition at 0.1 µM [1, 5]: -4%

Structure (SMILES): Cc1cnc2c(c1)c1c(n2CCc2ccc(C(F)(F)F)nc2)CCN2CCCC12 (stereo not drawn) [II-238]
inhibition at 0.1 µM [1, 5]: 98%

Structure (SMILES): Cc1cnc2c(c1)c1c(n2CCc2ccc(C(F)(F)F)nc2)CC2CCCN2C1 (stereo not drawn) [II-239]
inhibition at 0.1 µM [1, 5]: 17%

Structure (SMILES): FC(F)(F)c1ccc(CCn2c3c(c4cccnc42)C2CCCN2CC3)cn1 (stereo not drawn) [IV-2]
inhibition at 0.1 µM [1, 5]: 50%

Structure (SMILES): Cc1ccc2c(c1)c1c(n2CCC2CCCCC2)CCN(C)C1 [compound 205]
inhibition at 0.1 µM [1, 5]: 70%
inhibition at 0.1 µM [2, 4]: 69%

Structure (SMILES): CN1CCc2c(c3cc(C(F)(F)F)ccc3n2CCc2ccccc2)C1 [compound 209]
inhibition at 0.1 µM [1, 5]: 84%
inhibition at 0.1 µM [2, 4]: 80%

Structure (SMILES): Cc1ccc(CCn2c3c(c4cc(C(F)(F)F)ccc42)CN(C)CC3)cc1 [compound 210]
inhibition at 0.1 µM [1, 5]: 63%
inhibition at 0.1 µM [2, 4]: 88%

Structure (SMILES): CN1CCc2c(c3cc(Cl)ccc3n2CCC2CCCCC2)C1 [compound 212]
inhibition at 0.1 µM [1, 5]: 64%
inhibition at 0.1 µM [2, 4]: 66%

Structure (SMILES): CN1CCc2c(c3ccc(Cl)cc3n2CCc2ccccc2)C1 [compound 215]
inhibition at 0.1 µM [1, 5]: 102%
inhibition at 0.1 µM [2, 4]: 97%

Other lines, results leading:

Ki [1]: 15.1 nM
inhibition at 0.03 µM [1, 3]: 43%
inhibition at 0.1 µM [1, 5]: 74%
Structure (SMILES): Cc1ccc2c(c1)c1c(n2C(C)C(O)c2ccncc2)CCN(C)C1 (single isomer, unassigned) [127a]

Percentage inhibition of ligand binding, Adrenergic α2B (0.03 μM) [1, 3]: 94%
Percentage inhibition of ligand binding, Adrenergic α2A (0.1 μM) [2, 6]: 96%
Structure (SMILES): C/C(=C\n1c2c(c3cc(C)ccc31)C1CCCCN1CC2)c1ccc(F)cc1 (single isomer, unassigned) [199a]

Percentage inhibition of ligand binding, Adrenergic α2B (0.03 μM) [1, 3]: 27%
Percentage inhibition of ligand binding, Adrenergic α2A (0.1 μM) [2, 6]: 61%
Structure (SMILES): C/C(=C\n1c2c(c3cc(C)ccc31)C1CCCCN1CC2)c1ccc(F)cc1 (single isomer, unassigned) [199b]

Percentage inhibition of ligand binding, Adrenergic α2B [1]: 12%
inhibition at 0.1 µM ([2]; 0.1 μM compound, read-out: Percentage inhibition of ligand binding, Adrenergic α2A): 7%
Structure (SMILES): Cc1cnc2c(c1)c1c(n2CC(O)c2ccc(C)nc2)CCN(C)C1 (single isomer, unassigned) [II-100a]

inhibition at 0.03 µM [1, 3]: 98%
Structure (SMILES): C/C(=C\n1c2c(c3cc(C)ccc31)C1CCCN1CC2)c1ccc(C)nc1 (stereo not drawn) [193a, 10-methyl-7-(2-(6-methylpyridin-3-yl)prop-1-enyl)-2,3,5,6,7,11c-hexahydro-1H-indolizino[7,8-b]indole]

inhibition at 0.1 µM [1, 7]: 36%
Structure (SMILES): Cc1ccc2c(c1)c1c(n2CCc2ccc(C(F)(F)F)nc2)C(C)(C)CN(C)C1 [II-40]

inhibition at 0.1 µM [1, 7]: 47%
Structure (SMILES): C/C(=C\n1c2c(c3cc(C)ccc31)CN(C)CC2(C)C)c1ccc(C)nc1 [II-61]

inhibition at 0.1 µM [1, 7]: 34%
Structure (SMILES): C/C(=C\n1c2c(c3cc(C)ccc31)CN(C)CC2(C)C)c1ccncc1 [II-70]

inhibition at 0.1 µM [1, 7]: 103%
Structure (SMILES): C/C(=C\n1c2c(c3cc(C)ccc31)CN(C)CC2)c1cnccc1C [II-76, (E)-2,8-dimethyl-5-(2-(4-methylpyridin-3-yl)prop-1-en-1-yl)-2,3,4,5-tetrahydro-1H-pyrido[4,3-b]indole]

Percentage inhibition of ligand binding, Adrenergic α2B [1]: 5%
Structure (SMILES): Cc1ccc2c(c1)c1c(n2C(C)C(O)c2ccncc2)CCN(C)C1 (stereo not drawn) [II-98b]

inhibition at 0.1 µM [1, 5]: -5%
Structure (SMILES): Cc1ccc(CCn2c3c(c4cccnc42)CN(C)CC3(C)C)cn1 [II-133]

inhibition at 0.1 µM [1, 5]: -5%
Structure (SMILES): CN1Cc2c(n(CCc3ccc(C(F)(F)F)nc3)c3ncccc23)C(C)(C)C1 [II-215]

inhibition at 0.1 µM [1, 5]: 107%
Ki [2]: 2.48 nM
inhibition at 0.1 µM [2, 4]: 87%
Structure (SMILES): Cc1ccc2c(c1)c1c(n2CCc2ccccc2F)CCN(C)C1 [compound 204]
